The assay addresses T1, abc isoform of human TMEM16A channel expressed in CHO cells (Homo sapiens, UniProt Q5XXA6, DEL476-501).
T1 construct: expressed in transfected cells; host or cells: CHO cells, doxycycline-inducible expression under Blasticidin/Zeocin selection
T1 sequence (Q5XXA6 with tags, fused parts or gaps isoform Q5XXA6-5 DEL539-564): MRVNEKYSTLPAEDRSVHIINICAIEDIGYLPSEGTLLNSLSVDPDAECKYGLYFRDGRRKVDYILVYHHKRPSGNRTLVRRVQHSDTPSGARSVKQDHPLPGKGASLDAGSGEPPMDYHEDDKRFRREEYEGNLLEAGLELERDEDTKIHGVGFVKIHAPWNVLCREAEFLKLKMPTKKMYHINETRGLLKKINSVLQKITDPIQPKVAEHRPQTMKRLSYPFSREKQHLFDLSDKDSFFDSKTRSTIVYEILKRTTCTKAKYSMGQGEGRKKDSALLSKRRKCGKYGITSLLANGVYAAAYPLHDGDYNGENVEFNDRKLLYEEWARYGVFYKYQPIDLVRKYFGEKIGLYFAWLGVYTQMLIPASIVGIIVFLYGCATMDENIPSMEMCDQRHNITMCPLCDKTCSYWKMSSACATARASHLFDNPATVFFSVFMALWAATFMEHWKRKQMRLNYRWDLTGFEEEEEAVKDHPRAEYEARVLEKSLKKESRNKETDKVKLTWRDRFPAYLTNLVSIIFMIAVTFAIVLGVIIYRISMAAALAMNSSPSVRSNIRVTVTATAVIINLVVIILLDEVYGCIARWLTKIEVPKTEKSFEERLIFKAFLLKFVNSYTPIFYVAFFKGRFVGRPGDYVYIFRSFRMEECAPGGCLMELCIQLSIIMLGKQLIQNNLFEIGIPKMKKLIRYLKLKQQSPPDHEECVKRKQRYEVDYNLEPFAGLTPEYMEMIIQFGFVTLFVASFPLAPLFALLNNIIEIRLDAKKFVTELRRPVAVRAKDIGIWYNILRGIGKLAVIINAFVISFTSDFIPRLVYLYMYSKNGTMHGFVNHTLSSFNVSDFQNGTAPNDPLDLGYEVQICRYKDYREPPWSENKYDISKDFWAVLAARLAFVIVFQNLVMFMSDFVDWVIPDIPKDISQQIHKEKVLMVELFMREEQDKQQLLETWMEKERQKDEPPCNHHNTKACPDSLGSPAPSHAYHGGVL
The assay can be described thus: Automated patch clamping (QPatch) assay to measure TMEM16A activity in whole-cell. It is filed as cell-based. The following applies: for EC50: CHO cells expressing human TMEM16A (abc), whole-cell automated patch clamp, Hill fit, read-out: TMEM16A QPATCH assay EC50 V3 EC50; for Emax: CHO, maximum current at highest dose relative to reference potentiator at maximal concentration (upper limit) and vehicle (lower limit), read-out: TMEM16A QPATCH assay EC50 V3 Assay Window (% TMEM16A max activation). As to the method:
Automated Patch Clamping Assay to Measure TMEM16A Activity in Whole-Cell
Chinese hamster ovary cells (CHO) cells expressing abc isoform of human TMEM16A channel (Ref) were grown in vented cell-culture flasks (Corning) containing cell culture medium (1×F-12 Ham, 10% FBS, 1% Penicillin-streptomycin, 5 μg/mL Blasticidin S HCl, 400 μg/mL Zeocin), maintained at 37° C. in an incubator with 5% C02, 95% 02 and 100% humidity. The cells were passaged every 2-3 days at 80-90% confluence by aspirating the cell culture medium, washing twice with 10 mL D-PBS then incubating with 4 mL Trypsin-EDTA for no longer than 5 minutes. Trypsin was neutralized with the addition of 32 mL growth medium to the cell suspension, the cells were counted using a viable-cell counter (Vi-CELL; Beckmann-Coulter) and new flasks were seeded at a cell density of 0.01, 0.02, or 0.05×10^6 cells per cm2 for 3, 2, or 1 day(s) growth, respectively. Cell suspension was diluted in the new 175 cm2 flask with 50 mL of growth medium. Doxycycline was used to induce the expression of TMEM16A channel protein and was added directly to the culture flask 18-24 hours in advance of assay at a final concentration of 1 μg/mL. Induced cells were washed with D-PBS and detached from their culture flasks by adding 10 mL of Detachin and incubating for 10 minutes. Once detached, 5 mL of QPatch assay medium (1×CHO-S-SFM II (Sigma), 25 mM HEPES) was added and the resultant cell suspension counted using the Vi-CELL viable cell counter. The optimal cell density for this QPatch assay is 2-5×1 06 cells/mL; re-adjusted as necessary with QPatch assay medium.
The ion channel activity of TMEM16A (abc) expressed in CHO cells was assed using an automated patch clamp system (Qpatch, Sophion). These systems use planar patch-clamp technology to enable high-resistance, continuous whole-cell recordings from multiple cells in parallel, whilst maintaining each individual cell as an isolated experiment. First, each well was primed with intracellular and extracellular solutions described below. Cells were spun down, washed and then resuspended using extracellular solution. Intracellular solution: 130 mM N-methyl-D-glucamine, 10 mM EGTA, 20 mM CaCl2, 1 mM MgCl2, 10 mM HEPES 10, 10 mM BAPTA, 99 mM Sucrose, 2 mM Mg-ATP, pH 7.3, 320 mOsm Extracellular solution: 130 mM N-methyl-D-glucamine, 10 mM EGTA, 20 mM CaCl2, 1 mM MgCl2, 10 mM HEPES 10, 10 mM BAPTA, 99 mM Sucrose, 2 mM Mg-ATP, pH 7.3, 320 mOsm. Resuspended cells were then added to each well and suction was applied from the intracellular side in order to position a cell on the chip aperture, form a high resistance (GO) seal and achieve a whole-cell recording configuration. Following successful whole cell access, cell membranes were maintained at a voltage of −70 mV until the voltage protocol is applied. From this voltage, membranes were depolarized to +70 mV for 1500 ms, and then hyperpolarized to […] before being depolarized again from −90 to +70 mV in a continuous ramp waveform. At the end of the ramp, the membrane voltage is stepped back to −70 mV until the next waveform was applied. Compounds were dissolved at 10 mM in 100% DMSO and then diluted into extracellular solution (0.3% DMSO final) to the desired final concentration. The assay lower and upper limit were defined as follow, average amplitude (nA) of the last 3 sweeps in the vehicle addition of each cell was considered the basal current (lower limit); the average maximum current response in 3 cells for a reference potentiator at maximal concentration (upper limit). Current values for each compound concentration were then plotted against […]. EC50 curves are fitted to concentration-response data using curve-fitting functions (Hill fit) within the QPatch software. Curve fitting is constrained between the lowest concentration (vehicle-only addition) and the highest current value measured within the concentration range. […]
On the technique in general: Patch clamp records ionic current or voltage across a cell membrane.

The term EC50 denotes the concentration that produces a half-maximal response. `CCC(CC)NC(=O)c1cc(-c2cccc(-c3ncc(C(=O)NC(CC)CC)o3)c2)n[nH]1` [Example 1.20, N-(Pentan-3-Yl)-2-(3-(5-(Pentan-3-Ylcarbamoyl)-1H-Pyrazol-3-yl)Phenyl)Oxazole-5-Carboxamide]: the EC50 came to 290 nM and the Emax is 112%.

For `CCC(CC)NC(=O)c1cc(-c2cccc(-c3ncc(C(=O)N[C@@H](C)c4ccccc4)o3)c2)[nH]n1` [Example 1.21, (S)-2-(3-(3-(Pentan-3-Ylcarbamoyl)-1H-Pyrazol-5-Yl)Phenyl)-N-(1-Phenylethyl)Oxazole-5-Carboxamide], the EC50 is 930 nM and the Emax came out at 92%.

`CCOC(=O)[C@@H](NC(=O)c1cnc(-c2cccc(-c3cc(C(=O)NC(CC)C(F)(F)F)[nH]n3)c2)o1)C(C)C` (stereo partly drawn) [Example 1.22, (2S)-Ethyl 3-Methyl-2-(2-(3-(5-((1,1,1-Trifluorobutan-2-Yl)Carbamoyl)-1H-Pyrazol-3-Yl)Phenyl)Oxazole-5-Carboxamido)Butanoate]: the EC50 came to 30 nM and the Emax was 119%.

As for `CCC(CC)NC(=O)c1cc(-c2cccc(-c3ncc(C(=O)N[C@@H](C)C4CCCCC4)o3)c2)[nH]n1` [Example 1.24, (S)-N-(1-Cyclohexylethyl)-2-(3-(3-(Pentan-3-Ylcarbamoyl)-1H-Pyrazol-5-yl)Phenyl)Oxazole-5-Carboxamide], the EC50 was found to be 180 nM and the Emax came to 83%.

Regarding `COC(=O)[C@@H](CSC)NC(=O)c1cnc(-c2cccc(-c3cc(C(=O)N[C@@H](C)C4CC4)n[nH]3)c2)o1` [Example 1.25, (S)-Methyl 2-(2-(3-(3-(((S)-1-Cyclopropylethyl)Carbamoyl)-1H-Pyrazol-5-yl)Phenyl)Oxazole-5-Carboxamido)-3-(Methylthio)Propanoate], the concentration for a half-maximal effect (EC50) stood at 260 nM and the Emax came to 83%.

Take `CCC(CC)NC(=O)c1cc(-c2cccc(-c3ncc(C(=O)N[C@@H](CC(C)C)C(=O)OC)o3)c2)[nH]n1` [Example 1.26, (S)-Methyl 4-Methyl-2-(2-(3-(3-(Pentan-3-Ylcarbamoyl)-1H-Pyrazol-5-yl)Phenyl)Oxazole-5-Carboxamido)Pentanoate]: the EC50 worked out at 640 nM and the Emax stood at 91%.

Consider `CCC(CC)NC(=O)c1cc(-c2cccc(-c3ncc(C(=O)Nc4cccc(C#N)c4)o3)c2)[nH]n1` [Example 1.27, N-(3-Cyanophenyl)-2-(3-(3-(Pentan-3-Ylcarbamoyl)-1 H-Pyrazol-5-yl)Phenyl)Oxazole-5-Carboxamide], for which the EC50 came to 920 nM and the Emax was 86%.

On to `CCOC(=O)[C@H](NC(=O)c1cnc(-c2cccc(-c3cc(C(=O)NC(CC)CC)n[nH]3)c2)o1)c1ccccc1` [Example 1.28, (R)-Ethyl 2-(2-(3-(3-(Pentan-3-Ylcarbamoyl)-1 H-Pyrazol-5-yl)Phenyl)Oxazole-5-Carboxamido)-2-Phenylacetate], for which the EC50 was 610 nM and the Emax came out at 84%.

For `COC(=O)[C@@H](NC(=O)c1cnc(-c2cccc(-c3cc(C(=O)NC(C4CC4)C4CC4)[nH]n3)c2)o1)C(C)C` [Example 1.29, (S)-Methyl 2-(2-(3-(5-((Dicyclopropylmethyl)Carbamoyl)-1 H-Pyrazol-3-yl)Phenyl)Oxazole-5-Carboxamido)-3-Methylbutanoate], the EC50 stood at 10 nM and the Emax came to 113%.

For `CCC(CC)NC(=O)c1cc(-c2cccc(-c3ncc(C(=O)Nc4ccon4)o3)c2)[nH]n1` [Example 1.30, N-(Isoxazol-3-Yl)-2-(3-(3-(Pentan-3-Ylcarbamoyl)-1 H-Pyrazol-5-yl)Phenyl)Oxazole-5-Carboxamide], the EC50 came out at 870 nM and the Emax amounted to 62%.

With `CCC(CC)NC(=O)c1cc(-c2cccc(-c3ncc(C(=O)NCc4ccc5c(c4)OCO5)o3)c2)[nH]n1` [Example 1.31, N-(Benzo[d][1,3]Dioxol-5-Ylmethyl)-2-(3-(3-(Pentan-3-Ylcarbamoyl)-1 H-Pyrazol-5-yl)Phenyl)Oxazole-5-Carboxamide], the EC50 came to 770 nM and the Emax was 65%.

`CCC(CC)NC(=O)c1cc(-c2cccc(-c3ncc(C(=O)NCC(=O)OC(C)C)o3)c2)[nH]n1` [Example 1.32, Isopropyl 2-(2-(3-(3-(Pentan-3-Ylcarbamoyl)-1 H-Pyrazol-5-yl)Phenyl)Oxazole-5-Carboxamido)Acetate]: the EC50 turned out to be 880 nM and the Emax is 77%.

In the case of `CCC(CC)NC(=O)c1cc(-c2cccc(-c3ncc(C(=O)Nc4cccc(Cl)c4)o3)c2)[nH]n1` [Example 1.33, N-(3-Chlorophenyl)-2-(3-(3-(Pentan-3-Ylcarbamoyl)-1H-Pyrazol-5-yl)Phenyl)Oxazole-5-Carboxamide], the EC50 was 720 nM and the Emax is 66%.

Regarding `CCC(CC)NC(=O)c1cc(-c2cccc(-c3ncc(C(=O)NCC4(C)CCCCC4)o3)c2)[nH]n1` [Example 1.34, N-((1-Methylcyclohexyl)Methyl)-2-(3-(3-(Pentan-3-Ylcarbamoyl)-1 H-Pyrazol-5-Yl)Phenyl)Oxazole-5-Carboxamide], the EC50 is 570 nM and the Emax stood at 72%.

`CCCC(CCC)NC(=O)c1cnc(-c2cccc(-c3cc(C(=O)NC(CC)CC)n[nH]3)c2)o1` [Example 1.35, N-(Heptan-4-Yl)-2-(3-(3-(Pentan-3-Ylcarbamoyl)-1H-Pyrazol-5-yl)Phenyl)Oxazole-5-Carboxamide]: the EC50 worked out at 70 nM and the Emax amounted to 90%.

As to `CCOC(=O)[C@@H](NC(=O)c1cnc(-c2cccc(-c3cc(C(=O)NC(CC)CC)n[nH]3)c2)o1)c1ccccc1` [Example 1.36, (S)-Ethyl 2-(2-(3-(3-(Pentan-3-Ylcarbamoyl)-1 H-Pyrazol-5-Yl)Phenyl)Oxazole-5-Carboxamido)-2-Phenylacetate], the 50% effective concentration (EC50) is 1100 nM and the Emax stood at 102%.

The values are drawn from patent US20220306617A1, “SUBSTITUTED 1,3-PHENYL HETEROARYL DERIVATIVES AND THEIR USE IN THE TREATMENT OF DISEASE” (NOVARTIS AG, priority 2019, published 2022).
